Reference: patent EP4741392A1, “1H-PYRAZOLO[4,3-C]PYRIDINE COMPOUND, AND COMPOSITION THEREOF AND USE THEREOF” (Shenzhen TargetRx Co., Ltd., priority 2023, dated 2025)
pIC50: −log10 of the molar value.

What was measured:
Type in all cases: cell-based
[1] = test system: Ramos cells with BTK WT; assay: Phosphor-BTK(Y223) assay, suspended cells; settings: phosphorylated BTK Y223, Ramos cells with BTK WT
Procedure: (§1) The purpose of this assay was to simply, quickly and directly detect the level of endogenous BTK phosphorylation in cells.
The steps for handling suspended cells were as follows: • 1) Ramos cells with BTK WT (2.5 k/well), BTK C481S (2.5 k/well), or BTK T474I (2.5 k/well) were plated in a 96-well plate, respectively. A compound of different concentration gradients was added using Tecan D300e, and the plate was incubated at 37 °C and 5% CO2 for 2 hours. • 2) 8.33 µL of 20 mM Na3VO4 was added to bring the final concentration to 5 mM, and the plate was incubated at 37 °C and 5% CO2 for 3 h. • 3) During the incubation, the following reagents were prepared: • 4x added lysis buffer: 24 vol 4x lysis buffer + 1 vol 25x blocking reagent. • p-BTK (Y223) cryptate-antibody and p-BTK (Y223) d2-antibody working solutions: 1 volume of each cryopreserved antibody (stored at - 20 °C) was added to 38 times the volume of assay buffer (stored at 4 °C), and mixed well. • 4) After the incubation was completed, 11.1 µL of 4x added lysis buffer was directly added. The plate was shaken at 800 rpm at room temperature for 30 min. • 5) The lysate was mixed well and 16 µL of it was transferred to a 384-well plate. 1 × added lysis buffer was used as a blank control. • 6) 4 µL of pre-mixed working solutions of the two antibodies (cryptate Ab:d2 Ab = 1:1) was added, and the plate was sealed. • 7) The plate was incubated at room temperature overnight. • 8) The plate was read at 665nm and 620nm using Biotek cytation3.0 microplate reader, and the ratio of 665/620nm of each well was calculated. Data analysis: IC50 was calculated using GraphPad Prism 7.0 software.
(§2) The IC50 (half-maximal phosphorylation inhibitory concentration) of the phosphorylated BTK Y223 of the compound was obtained using the following nonlinear fitting formula: Y = Bottom + (Top−Bottom)/(1+10^(∧)((LogIC50−X)*HillSlope)) [formula] • X: Log value of the compound concentration • Y: Inhibition rate (% inhibition) • Top: Maximum response • Bottom: Baseline response • HillSlope: Slope of the curve
(§3) The formula for calculating cell phosphorylation inhibition rate (inhibition rate %) was: Inhibition rate% = 1−(eachconcentrationwell-blankwell)/(positivecontrolwell−blankwell) [formula]

[2] = test system: NIH/3T3 BTK WT cells; assay: Phosphor-BTK(Y223) assay, adherent cells; settings: phosphorylated BTK Y223, NIH/3T3 BTK WT cells; read-out: NIH/3T3 BTK-WT pBTK
Procedure: as §1
(§4) The steps for handling adherent cells were as follows: • 1) NIH/3T3 BTK WT cells (7.5 k/well) and NIH/3T3 BTK C481S cells (10 k/well) were plated in a 96-well plate, respectively, and cultured at 37 °C and 5% CO2 overnight. • 2) A 3-fold final concentration gradient dilution of a compound was prepared, and 50 µL of it was taken and added to 100 µL of cell culture. 0.5% DMSO was used as a positive control for cell growth. • 3) The plate was incubated at 37 °C and 5% CO2 for 0.5 h. • 4) Na3VO4 at a final concentration of 1mM was added, and the plate was incubated at 37 °C and 5% CO2 for 2 hours. • 5) During the incubation, the following reagents were prepared: • 1x added lysis buffer: 3 vol ddH2O + 1 vol 4x lysis buffer + 100x blocking reagent. • p-BTK (Y223) cryptate-antibody and p-BTK (Y223) d2-antibody working solutions: 1 volume of each cryopreserved antibody (stored at - 20 °C) was added to 19 times the volume of assay buffer (stored at 4 °C). • 6) After the incubation was completed, the medium was removed and 50 µL of 1x added lysis buffer was added. The plate was centrifuged at 500 rpm at room temperature for 30 min. • 7) The lysate was mixed well and 16 µL of it was transferred to a 384-well plate. 1 × added lysis buffer was used as a blank control. • 8) 4 µL of pre-mixed working solutions of the two antibodies (cryptate Ab:d2 Ab = 1:1) was added, and the plate was sealed. • 9) The plate was incubated at room temperature overnight. 10) The plate was read at 665nm and 620nm using Biotek cytation3.0 microplate reader, and the ratio of 665/620nm of each well was calculated.
as §2, §3

[3] = test system: NIH/3T3 BTK C481S cells; assay: Phosphor-BTK(Y223) assay, adherent cells; settings: phosphorylated BTK Y223, NIH/3T3 BTK C481S cells; read-out: NIH/3T3 BTK-C481S pBTK
Procedure: as §1, §4, §2, §3

Measured: pIC50

N-(4-(3-amino-7-(1,7-naphthyridin-2-yl)-1H-pyrazolo[4,3-c]pyridin-4-yl)benzyl)-5-fluoro-2-methoxybenzamide [Example 49]
< 7.30: all assays above
